Holding throughout (assay): NCI tumour cell line growth inhibition, 48 h
The test system of test [1] is DMS 273 small cell lung.
In test [2] the test system is DLD-1 colon.
Test [3] has as its system M19-MEL melanoma.
Test [4] deals with KM20L2 colon.
For test [5], the system named is LXFL 529 NSCLC.
Test [6] deals with DMS 114 small cell lung.
Test [7] has as its system HOP-18 NSCLC.
Test [8] deals with XF 498 CNS.
In test [9] the test system is SN12K1 renal.
The subject of test [10] is P388 leukemia.
Test [11] deals with P388/ADR leukemia.

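All cell lines were grown in 96-well plates and treated with compound for 48 hours. The concentration for full growth arrest is given as TGI.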

Consider `CCCCCCCCCCCCCCCCNc1cccc2ccccc12`, for which the TGI in test [1], in test [2], in [3], in test [4], in test [5] and in test [6] was > 100 µM in each case.

As to `CCOC(=O)C1S/C(=N\C(=N)N[N+](=O)[O-])N=C1C` (configuration not stated), the TGI in test [2], in test [7], in test [3], in test [4], in test [8] and in test [5] was > 100 µM each time. Also, the TGI in test [6] is > 100 µM.

`O=C1OCC/C1=N/O`: the TGI in [1], in test [2], in test [7], in test [3], in test [4] and in test [5] was > 100 µM throughout. The TGI in test [6] was > 100 µM.

In the case of `CCCCCCCCCCCC[S+](C)C`, the TGI in test [1] worked out at 17.2 µM; in test [9], 18.8 µM; in test [10], 3.1 µM; in test [2], 25.9 µM; in test [7], 14.9 µM; in test [3], 6.45 µM. In addition, the TGI was > 100 µM in test [11], 20.9 µM in [4], 6.71 µM in [8] and 13.4 µM in test [6].

Turning to `Cc1c2n(c(=O)[nH]c1=O)C1OC(CO)C(N=[N+]=[N-])C1O2` (configuration not stated), the TGI in [1], in test [2], in test [3], in test [4], in [5] and in test [6] was > 100 µM throughout.

In the case of `CC1=Cc2cccc(C)c2C(=O)C1=O`, the TGI in [1] stood at 38.2 µM; in test [2] it was 4.32 µM; in test [7], 2.79 µM; in [3], 23.6 µM; in [4], 35.5 µM; in [8], 9.65 µM. In test [5], this compound came in with a TGI of 5.27 µM.

Regarding `Cc1ccc(/C=N\NC2c3cc(Cl)ccc3Nc3nc(=O)[nH]c(C)c32)cc1` (configuration not stated), the TGI in test [1], in test [2], in test [3], in test [4], in test [8] and in [5] was > 100 µM in each case. The TGI in test [6] was > 100 µM.

On to `CC(O)CNC(=O)C(C)Oc1ccc(OCC2CCCCC2)cc1` (configuration not stated), for which the TGI in test [1], in [7], in [3], in test [8], in test [5] and in test [6] was > 100 µM in each case.

Consider `O=C(O)COc1ccccc1C(=O)Nc1ccccc1`, for which the TGI in [1], in [2], in test [3], in test [4], in test [8] and in [5] was > 100 µM in each case.

Values taken from PubChem BioAssay (NCI).
